Experimental findings from patent US20220324865A1 (Bayer Aktiengesellschaft, priority 2018, published 2022) are described below.

The experiment addresses T1, human EP3 receptor (Homo sapiens, UniProt P43115).
T1 construct: expressed in transfected cells; host or cells: CHO K1 (Chinese Hamster Ovary), stably co-transfected with Galpha16 and mitochondrial clytin
T1 sequence (P43115 1-390): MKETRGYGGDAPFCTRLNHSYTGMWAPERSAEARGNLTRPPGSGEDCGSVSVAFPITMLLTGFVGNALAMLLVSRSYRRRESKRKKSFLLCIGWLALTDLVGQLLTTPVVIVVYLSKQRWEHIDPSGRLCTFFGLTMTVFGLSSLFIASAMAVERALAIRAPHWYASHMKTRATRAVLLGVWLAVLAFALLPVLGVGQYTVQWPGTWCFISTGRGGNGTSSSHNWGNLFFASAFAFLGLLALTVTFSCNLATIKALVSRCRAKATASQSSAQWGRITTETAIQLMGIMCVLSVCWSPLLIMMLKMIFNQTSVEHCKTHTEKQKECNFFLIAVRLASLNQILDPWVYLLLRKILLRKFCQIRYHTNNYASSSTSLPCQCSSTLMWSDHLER
In words: Cellular in vitro assay for determining EP3 receptor activity (human EP3 cell line, sulprostone-stimulated calcium luminescence). The note with it: CHO cells expressing human EP3 and mitochondrial Clytin; antagonist mode, sulprostone at EC50; read-out: EP3 CHO mtCLY ANTAG IC50. The class given is cell-based. In short, it runs like this:
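CHO K1 cells stably expressing human EP3 with Gα16 and mitochondrial Clytin, loaded overnight with coelenterazine. Compounds added 10 min before sulprostone at its EC50; antagonism read immediately as reduced calcium-driven luminescence, quadruplicate points.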
As usually defined, the IC50 is the midpoint of a concentration-inhibition curve. For the molecule `Cc1cccc2ncc(-c3cn4nc(C(=O)NCc5cnn(C)c5)c(C(C)C)c4c(=O)[nH]3)cc12` [Example 4-37, N-[(1-Methyl-1H-pyrazol-4-yl)methyl]-6-(5-methylquinolin-3-yl)-4-oxo-3-(propan-2-yl)-4,5-dihydropyrazolo[1,5-a]pyrazine-2-carboxamide], the IC50 was 2 nM. Turning to `Cc1cccc2ncc(-c3cn4nc(C(=O)NC5Cc6ccccc6C5)c(C(C)C)c4c(=O)[nH]3)cc12` [Example 4-38, N-(2,3-Dihydro-1H-inden-2-yl)-6-(5-methylquinolin-3-yl)-4-oxo-3-(propan-2-yl)-4,5-dihydropyrazolo[1,5-a]pyrazine-2-carboxamide], the IC50 worked out at 1.3 nM.

Turning to `Cc1cccc2ncc(-c3cn4nc(C(=O)NCCOCC(F)(F)F)c(C(C)C)c4c(=O)[nH]3)cc12` [Example 4-39, 6-(5-Methylquinolin-3-yl)-4-oxo-3-(propan-2-yl)-N-[2-(2,2,2-trifluoroethoxy)ethyl]-4,5-dihydropyrazolo[1,5-a]pyrazine-2-carboxamide], the IC50 turned out to be 1.85 nM. As for `Cc1cccc2ncc(-c3cn4nc(C(=O)NCCn5ccc(C6CC6)n5)c(C(C)C)c4c(=O)[nH]3)cc12` [Example 4-40, N-[2-(3-Cyclopropyl-1H-pyrazol-1-yl)ethyl]-6-(5-methylquinolin-3-yl)-4-oxo-3-(propan-2-yl)-4,5-dihydropyrazolo[1,5-a]pyrazine-2-carboxamide], the IC50 turned out to be 0.85 nM.

For the molecule `Cc1cc(CNC(=O)c2nn3cc(-c4cnc5cccc(C)c5c4)[nH]c(=O)c3c2C(C)C)on1` [Example 4-41, N-[(3-Methyl-1,2-oxazol-5-yl)methyl]-6-(5-methylquinolin-3-yl)-4-oxo-3-(propan-2-yl)-4,5-dihydropyrazolo[1,5-a]pyrazine-2-carboxamide], the IC50 turned out to be 0.95 nM. Next, `Cc1cccc2ncc(-c3cn4nc(C(=O)NCC5CNC(=O)O5)c(C(C)C)c4c(=O)[nH]3)cc12` (centres unmarked) [Example 4-42, 3-Isopropyl-6-(5-methyl-3-quinolyl)-4-oxo-N-[(2-oxooxazolidin-5-yl)methyl]-5H-pyrazolo[1,5-a]pyrazine-2-carboxamide]: 4.45 nM; `Cc1cccc2ncc(-c3cn4nc(C(=O)NC5(c6ccccc6)CC5)c(C(C)C)c4c(=O)[nH]3)cc12` [Example 4-43, 6-(5-Methylquinolin-3-yl)-4-oxo-N-(1-phenylcyclopropyl)-3-(propan-2-yl)-4,5-dihydropyrazolo[1,5-a]pyrazine-2-carboxamide]: 0.84 nM. The result for `Cc1cccc2ncc(-c3cn4nc(C(=O)NC(CCO)c5ccccc5Cl)c(C(C)C)c4c(=O)[nH]3)cc12` (centres unmarked) [Example 4-44, N-[1-(2-Chlorophenyl)-3-hydroxypropyl]-3-isopropyl-6-(5-methyl-3-quinolyl)-4-oxo-5H-pyrazolo[1,5-a]pyrazine-2-carboxamide] reads 1.45 nM; that for `COc1cccc(C(CCO)NC(=O)c2nn3cc(-c4cnc5cccc(C)c5c4)[nH]c(=O)c3c2C(C)C)c1` (centres unmarked) [Example 4-45, N-[3-Hydroxy-1-(3-methoxyphenyl)propyl]-3-isopropyl-6-(5-methyl-3-quinolyl)-4-oxo-5H-pyrazolo[1,5-a]pyrazine-2-carboxamide], 0.61 nM. The result for `Cc1cccc2ncc(-c3cn4nc(C(=O)NC(C)c5ccccc5OC(F)F)c(C(C)C)c4c(=O)[nH]3)cc12` (centres unmarked) [Example 4-46, N-{1-[2-(Difluoromethoxy)phenyl]ethyl}-3-isopropyl-6-(5-methylquinolin-3-yl)-4-oxo-4,5-dihydropyrazolo[1,5-a]pyrazine-2-carboxamide] reads 1.05 nM. For `Cc1ccnc(C(C)NC(=O)c2nn3cc(-c4cnc5cccc(C)c5c4)[nH]c(=O)c3c2C(C)C)n1` (centres unmarked) [Example 4-47, 3-Isopropyl-N-[1-(4-methylpyrimidin-2-yl)ethyl]-6-(5-methyl-3-quinolyl)-4-oxo-5H-pyrazolo[1,5-a]pyrazine-2-carboxamide], the 50% inhibitory concentration (IC50) amounted to 3.1 nM. The result for `Cc1cccc2ncc(-c3cn4nc(C(=O)NCc5ccc(CN6CCCC6)cc5)c(C(C)C)c4c(=O)[nH]3)cc12` [Example 4-48, 6-(5-Methylquinolin-3-yl)-4-oxo-3-(propan-2-yl)-N-({4-[(pyrrolidin-1-yl)methyl]phenyl}methyl)-4,5-dihydropyrazolo[1,5-a]pyrazine-2-carboxamide] reads 4.75 nM; that for `CC[C@@H](NC(=O)c1nn2cc(-c3cnc4cccc(C)c4c3)[nH]c(=O)c2c1C(C)C)c1ccccc1` [Example 4-49, 6-(5-Methylquinolin-3-yl)-4-oxo-N-[(1R)-1-phenylpropyl]-3-(propan-2-yl)-4,5-dihydropyrazolo[1,5-a]pyrazine-2-carboxamide], 3.95 nM; that for `Cc1cccc2ncc(-c3cn4nc(C(=O)NC5(c6ccc(Cl)cc6)CCC5)c(C(C)C)c4c(=O)[nH]3)cc12` [Example 4-50, N-[1-(4-Chlorophenyl)cyclobutyl]-6-(5-methylquinolin-3-yl)-4-oxo-3-(propan-2-yl)-4,5-dihydropyrazolo[1,5-a]pyrazine-2-carboxamide], 8.3 nM. Regarding `Cc1cccc2ncc(-c3cn4nc(C(=O)NC(c5ccc(F)cc5)C(C)C)c(C(C)C)c4c(=O)[nH]3)cc12` (centres unmarked) [Example 4-51, N-[1-(4-Fluorophenyl)-2-methylpropyl]-3-isopropyl-6-(5-methyl-3-quinolyl)-4-oxo-5H-pyrazolo[1,5-a]pyrazine-2-carboxamide], the IC50 was found to be 4.05 nM. Turning to `Cc1cccc2ncc(-c3cn4nc(C(=O)NC(C)c5ccc(Cl)c(Cl)c5)c(C(C)C)c4c(=O)[nH]3)cc12` (centres unmarked) [Example 4-52, N-[1-(3,4-Dichlorophenyl)ethyl]-3-isopropyl-6-(5-methyl-3-quinolyl)-4-oxo-5H-pyrazolo[1,5-a]pyrazine-2-carboxamide], the half-maximal inhibitory concentration (IC50) stood at 4.05 nM. With `Cc1cccc2ncc(-c3cn4nc(C(=O)NC(C)c5ccc(S(N)(=O)=O)cc5)c(C(C)C)c4c(=O)[nH]3)cc12` (centres unmarked) [Example 4-53, 3-Isopropyl-6-(5-methyl-3-quinolyl)-4-oxo-N-[1-(4-sulfamoylphenyl)ethyl]-5H-pyrazolo[1,5-a]pyrazine-2-carboxamide], the IC50 was determined as 1.1 nM.

For the molecule `Cc1cccc2ncc(-c3cn4nc(C(=O)NC(C)c5ccccn5)c(C(C)C)c4c(=O)[nH]3)cc12` (centres unmarked) [Example 4-54, 3-Isopropyl-6-(5-methyl-3-quinolyl)-4-oxo-N-[1-(2-pyridyl)ethyl]-5H-pyrazolo[1,5-a]pyrazine-2-carboxamide], the IC50 is 2 nM. Next, `Cc1ccc([C@@H](C)NC(=O)c2nn3cc(-c4cnc5cccc(C)c5c4)[nH]c(=O)c3c2C(C)C)cc1` [Example 4-55, N-[(1R)-1-(4-Methylphenyl)ethyl]-6-(5-methylquinolin-3-yl)-4-oxo-3-(propan-2-yl)-4,5-dihydropyrazolo[1,5-a]pyrazine-2-carboxamide]: 2.75 nM; `Cc1ccc([C@H](C)NC(=O)c2nn3cc(-c4cnc5cccc(C)c5c4)[nH]c(=O)c3c2C(C)C)cc1` [Example 4-56, N-[(7S)-1-(4-Methylphenyl)ethyl]-6-(5-methylquinolin-3-yl)-4-oxo-3-(propan-2-yl)-4,5-dihydropyrazolo[1,5-a]pyrazine-2-carboxamide]: 4 nM. Next, `Cc1cccc2ncc(-c3cn4nc(C(=O)NC(C)c5ccc6c(c5)OCCO6)c(C(C)C)c4c(=O)[nH]3)cc12` (centres unmarked) [Example 4-57, N-[1-(2,3-Dihydro-1,4-benzodioxin-6-yl)ethyl]-3-isopropyl-6-(5-methyl-3-quinolyl)-4-oxo-5H-pyrazolo[1,5-a]pyrazine-2-carboxamide]: 1.9 nM; `Cc1cccc2ncc(-c3cn4nc(C(=O)N[C@H]5CCCc6ccccc65)c(C(C)C)c4c(=O)[nH]3)cc12` [Example 4-58, 6-(5-Methylquinolin-3-yl)-4-oxo-3-(propan-2-yl)-N-[(7S)-1,2,3,4-tetrahydronaphthalen-1-yl]-4,5-dihydropyrazolo[1,5-a]pyrazine-2-carboxamide]: 4.3 nM; `Cc1cccc2ncc(-c3cn4nc(C(=O)N[C@@H](C)c5ccccc5)c(C(C)C)c4c(=O)[nH]3)cc12` [Example 4-59, 6-(5-Methylquinolin-3-yl)-4-oxo-N-[(7S)-1-phenylethyl]-3-(propan-2-yl)-4,5-dihydropyrazolo[1,5-a]pyrazine-2-carboxamide]: 0.675 nM. The result for `Cc1cc(C)nc(CNC(=O)c2nn3cc(-c4cnc5cccc(C)c5c4)[nH]c(=O)c3c2C(C)C)n1` [Example 4-60, N-[(4,6-Dimethylpyrimidin-2-yl)methyl]-6-(5-methylquinolin-3-yl)-4-oxo-3-(propan-2-yl)-4,5-dihydropyrazolo[1,5-a]pyrazine-2-carboxamide] reads 2.1 nM; that for `Cc1cccc2ncc(-c3cn4nc(C(=O)NC(C)c5ccc(S(C)(=O)=O)cc5)c(C(C)C)c4c(=O)[nH]3)cc12` (centres unmarked) [Example 4-61, 3-Isopropyl-6-(5-methyl-3-quinolyl)-N-[1-(4-methylsulfonylphenyl)ethyl]-4-oxo-5H-pyrazolo[1,5-a]pyrazine-2-carboxamide], 1.8 nM; that for `Cc1cccc2ncc(-c3cn4nc(C(=O)NC(C)c5cccc(Br)c5)c(C(C)C)c4c(=O)[nH]3)cc12` (centres unmarked) [Example 4-62, N-[1-(3-Bromophenyl)ethyl]-3-isopropyl-6-(5-methyl-3-quinolyl)-4-oxo-5H-pyrazolo[1,5-a]pyrazine-2-carboxamide], 2.05 nM.
